Test results from US12502362B2, “Inhibitors of nucleotidyltransferase superfamily enzymes as antibiotics” (priority 2017, dated 2025).
Where two headings read alike, the source gives them in different places.

Assays:
[1] = system: Ps. aeruginosa (ATCC 27853); assay: MIC80 on Ps. aeruginosa; type: cell-based; conditions: Pseudomonas aeruginosa, ATCC27853
[2] = system: E. coli (ATCC 35218); assay: microbe, parasite or virus in culture; type: cell-based
[3] = system: Staphylococcus saprophyticus (ATCC BAA-750); assay: MIC80 on S. saprophyticus; type: cell-based; conditions: S. saprophyticus ATCC BAA-750, read-out: MIC80 S. sapro
Protocol: To further characterize the compounds, the minimal inhibitory concentration (MIC80) were determined for selected compounds. MIC80 is defined as the compound concentration at which ≥80% bacterial growth is inhibited compare to untreated controls. Meanwhile, for the selected compounds, cytotoxicity assays (CC50) were performed on a HepG2-derived hepatoblastoma cell line (HEPDES19). […] For CC50 evaluation, soluble tetrazolium dye (MTS) was used to measure mitochondrial toxicity in a human hepatoblastoma cell line (18). The bacteria (E. coli, S. saprophyticus and A. baumannii) used in MIC80 measurements were the same as that in the primary screening, but for Staphylococcus, S. aureus is used primarily because it is a common pathogen in Staphylococcaeae family, while S. saprophyticus is part of the normal human flora.

[4] = system: S. aureus ATCC strains and MRSA; type: cell-based, Staphylococcus aureus
[5] = system: S. aureus (ATCC 29213); assay: MIC80 on S. aureus; type: cell-based, Staphylococcus aureus; conditions: ≥80% growth inhibition
[6] = system: Staphylococcus epidermidis; type: cell-based
Protocol: (§1) It was also tested whether compounds #63 and #285 can inhibit other coagulase-negative Staphylococcus (CNS) including S. epidermidis, S. hominis, etc. […].

[7] = system: Staphylococcus hominis; type: cell-based
Protocol: as §1

O=C(O)c1cn(C2CC2)c2cc(N3CCNCC3)c(F)cc2c1=O [Compound 67, Ciprofloxacin]
MIC80 [1]: < 2.9 µM | MIC80 E. coli ([2]; E. coli ATCC 35218): <2.9 µM | MIC80 ([2]; Escherichia coli, ATCC35218, read-out: MIC80 E. coli, E. coli ATCC 35218): < 2.9 µM | MIC80 [3]: <2.9 µM | MIC80 ([3]; Staphylococcus saprophyticus, ATCCBAA750): < 2.9 µM | Antibiotic susceptibility ([4]; S. aureus ATCC 25923): S | Antibiotic susceptibility ([4]; S. aureus ATCC 29213): S | Antibiotic susceptibility ([4]; S. aureus ATCC BAA 976): S | Antibiotic susceptibility ([4]; S. aureus ATCC BAA 977): S | Antibiotic susceptibility ([4]; S. aureus ATCC BAA 1026): R | Antibiotic susceptibility ([4]; Sa1 (MRSA)): R | Antibiotic susceptibility ([4]; Sa2 (MRSA)): R | Antibiotic susceptibility ([4]; Sa3 (MRSA)): R | Antibiotic susceptibility ([4]; Sa5 (MRSA)): R | Antibiotic susceptibility ([4]; Sa6 (MRSA)): R | Antibiotic susceptibility ([4]; Sa7 (MRSA)): S | Antibiotic susceptibility ([4]; Sa8 (MRSA)): R | Antibiotic susceptibility ([4]; Sa9 (MRSA)): R | Antibiotic susceptibility ([4]; Sa10 (MRSA)): R | Antibiotic susceptibility ([4]; Sa11 (MRSA)): R | Antibiotic susceptibility ([4]; Sa12 (MRSA)): R | Antibiotic susceptibility ([4]; Sa14 (MRSA)): R | Antibiotic susceptibility ([4]; Sa15 (MRSA)): R | Antibiotic susceptibility ([4]; Sa16 (MRSA)): R | Antibiotic susceptibility ([4]; Sa17 (MRSA)): R | Antibiotic susceptibility ([4]; Sa18 (MRSA)): R | Antibiotic susceptibility ([4]; Sa19 (MRSA)): S | Antibiotic susceptibility ([4]; Sa20 (MRSA)): R | Antibiotic susceptibility ([4]; Sa21 (MRSA)): S | Antibiotic susceptibility ([4]; Sa22 (MRSA)): S | Antibiotic susceptibility ([4]; Sa23 (MRSA)): S | MIC80 S. aureus ([5]; S. aureus ATCC 29213 (MSSA)): <2.6 µM | MIC80 ([5]; Staphylococcus aureus, ATCC 29213 / MSSA, read-out: MIC80 S. aureus, S. aureus ATCC 29213 (MSSA)): < 2.9 µM | Antibiotic susceptibility [6]: R and S | Antibiotic susceptibility [7]: R and S
